# Assay results from publication PMC8038991, “R-catcher, a potent molecular tool to unveil the arginylome” (Cellular and Molecular Life Sciences: CMLS, 2021).
# “Also recorded” adds a separate entry of the source.
# Columns and labels:
# [1] = system: R-catcher; assay: R-catcher pulldown of putative arginylated ER proteins, HeLa; assay type: binding, human; details: 5 µM MG132 plus 100 nM TG, RA competition, Fig. 6a
# Method: For small-scale R-catcher pull-down assays, 300 µg of purified R-catcher was conjugated with 120 µl of Strep-Tactin sepharose resin by incubating overnight at 4 °C. To test R-catcher’s ability to capture known arginylated proteins, such as R-BiP, R-PDI, R-nsP4 and R-RGS4, plasmids encoding Ub-X-(BiP, PDI and nsP4) or MX-RGS4 (X = Arg or Val) were transiently transfected into HEK293 cells. After 24 h, cells were treated with 10 µM MG132 and 100 nM thapsigargin for another 24 h. Cells were harvested and lysed in hypotonic buffer and 300 µg total protein was incubate with 25 µl R-catcher-sepharose resin in binding buffer (20 mM HEPES pH 7.9, 0.05% Tween 20, 10% glycerol, 0.2 M KCl, protease inhibitor and phosphatase inhibitor) for 3 h with gentle rotation at 4 °C. After three washes with binding buffer, bound proteins were dissociated with 2 × SDS sample buffer and boiling at 100 °C and subjected to immunoblotting using anti-myc or flag antibodies.
# Plasmids encoding the proteins were transiently transfected to HeLa cells for 24 h and stimulated with 5 µM MG132 plus 100 nM TG for another 24 h. Cell lysates were incubated with R-catcher immobilized on tactin beads for 3 h. After wash, bound proteins were eluted with 2 × SDS sample buffer followed by boiling at 100 °C for 10 min and visualized by western blot analysis. b R-catcher pulldown assays to validate ATE1-dependent arginylation of […]1, PRDX4, FBLN1 and CLUS. Plasmids encoding […]1, PRDX4, FBLN1 and CLUS were transiently transfected into + / + and ATE1^−/− MEFs for 24 h and stimulated with 5 µM MG132 plus 100 nM TG for another 9 h. Cell lysates were subjected to R-catcher pulldown, and bound proteins were detected by western blot analysis. c R-catcher pull-down assays to evaluate if the arginylation of FBNL1, SERPINH1, CLUS and PRDX4 is induced in response to MG132 plus thapsigargin. d X-peptide pulldown assays to confirm no interaction of R-catcher with Nt-Ala19 of SERPINH1 peptides and Nt-Trp38 of PRDX4 peptides. X-peptides where X is A19 (SignalP predicted P1’ site), E20 (next possible P1’ site predicted by PrediSi) or R19 (Arginylated form of Glu) for SERPINH1 and W38 (SignalP predicted P1’ site), E39 (next possible P1’ site predicted by PrediSi) or R38 (Arginylated form) for PRDX4. Biotinylated X-peptides immobilized on streptavidin agarose beads were incubated with affinity-purified GST-ZZ ([…]). Bound GST-ZZ (N132D) was detected by immunoblotting. e Identification of arginylated sites employing mutational analysis. Predicted P1’ sites of SERPINH1, PRDX4, CLUS and FBLN1 were substituted to Gly, and the inhibitory effect of the mutation on binding with R-catcher was examined by performing R-catcher pulldown assays
# [2] = system: GST-ZZ122-175^N132D; assay: GST-ZZ122-175^N132D pulldown from HeLa lysates (MG132 plus TG); assay type: binding, human; details: HeLa lysate, immunoblot
# Source text: Using these lysates and purified GST tagged ZZ122-175^N132D (Supplementary Fig. 4A) immobilized on glutathione resin, we performed pulldown assays. […] In addition to pulling down R-BiP and R-CRT, GST-ZZ122-175^N132D was able to capture polyubiquitinated proteins, which were also disrupted by the D129A mutation and RA dipeptide competition (Supplementary Fig. 4B). This was expected because arginylated proteins are known to be ubiquitinated by E3 ligases containing a UBR box leading to their proteasomal degradation.
# Fig. 4 ZZ122-175 ^N132D is capable of capturing known arginylated proteins in cells. a Western blot analysis to visualize arginylated BiP and CRT. […] N-terminally arginylated BiP and CRT were detected by immunoblotting using anti R-BiP and R-CRT antibodies. b GST pulldown assays to test the ability of wild type (WT) and N132D GST-ZZ in capturing cellular R-BiP and R-CRT. […] Pulled down R-BiP and R-CRT were detected using anti R-BiP and R-CRT antibodies. c Schematic drawing illustrating R-catcher. […] R-catcher bound arginylated proteins were detected by immunoblotting using anti-Myc or Flag antibody. e R-catcher pulldown assay to capture R-BiP and R-CRT induced in HeLa cells stimulated with MG132 plus TG in the absence or presence of 20 mM dipeptides TEXT PRINTED IN THE PICTURE: (C) R-catcher: ~ 9 kDa
# [3] = system: R-catcher; assay: R-catcher pulldown of P1' site Gly mutants; assay type: binding, human; details: E20 SERPINH1, E30 (printed) PRDX4, D23 CLUS, D30 FBLN1 to Gly, Fig. 6e
# Method: (§1) For small-scale R-catcher pull-down assays, 300 µg of purified R-catcher was conjugated with 120 µl of Strep-Tactin sepharose resin by incubating overnight at 4 °C. To test R-catcher’s ability to capture known arginylated proteins, such as R-BiP, R-PDI, R-nsP4 and R-RGS4, plasmids encoding Ub-X-(BiP, PDI and nsP4) or MX-RGS4 (X = Arg or Val) were transiently transfected into HEK293 cells. After 24 h, cells were treated with 10 µM MG132 and 100 nM thapsigargin for another 24 h. […]
# (§2) Plasmids encoding the proteins were transiently transfected to HeLa cells for 24 h and stimulated with 5 µM MG132 plus 100 nM TG for another 24 h. […] Cell lysates were subjected to R-catcher pulldown, and bound proteins were detected by western blot analysis. c R-catcher pull-down assays to evaluate if the arginylation of FBNL1, SERPINH1, CLUS and PRDX4 is induced in response to MG132 plus thapsigargin. d X-peptide pulldown assays to confirm no interaction of R-catcher with Nt-Ala19 of SERPINH1 peptides and Nt-Trp38 of PRDX4 peptides. […] Bound GST-ZZ (N132D) was detected by immunoblotting. e Identification of arginylated sites employing mutational analysis. […]
# [4] = Identification of arginylation sites, GelNrich and in-gel digestion LC-MS/MS
# Source text: Upon separation of the immunoprecipitated protein by SDS-PAGE and staining with Coomassie Blue, the corresponding protein band was excised, half of which was subjected to GelNrich and the other half to conventional in-gel digestion GelNrich is an N-terminal peptide enrichment method based on in-gel digestion. The method includes in-gel protein level labeling of primary amines using d6-acetic anhydride and post-digestion negative selection of labeled N-terminal peptide(s) using N-hydroxysuccinimide activated agarose beads. Peptides recovered from GelNrich or in-gel digestion were dried in a vacuum evaporator and reconstituted in 0.1% formic acid. An aliquot was injected from a cooled (10 °C) auto-sampler into a reversed-phase EASY-Spray column (25 cm × 75 μm, Thermo Fisher Scientific) on an Eksigent nanoLC-ultra 1D plus system (Danaher Corporation) at a flow rate of 300 nL/min. Prior to use, the column was equilibrated with 96% buffer A (0.1% formic acid in water) and 4% buffer B (0.1% formic acid in acetonitrile). The peptides were eluted with a linear gradient from 4 to 35% buffer B over 60 min and 35–80% buffer B over 2 min followed by an organic wash and aqueous re-equilibration at a flow rate of 300 nL/min with a total run time of 96 min. The HPLC system was coupled to a Q-Exactive mass spectrometer (Thermo Fisher Scientific) operated in a data-dependent acquisition (DDA) mode. […]
# [5] = system: R-catcher; assay: R-catcher pulldown in +/+ and ATE1-/- MEFs; assay type: binding; details: +/+ versus ATE1-/- MEFs, MG132 plus TG, 9 h, Fig. 6b
# Method: as §1, §2
Substance,"binding with R-catcher, Nt-Arg dependence [1]",pulldown by GST-ZZ122-175^N132D [2],effect of Gly substitution of P1' site on interaction with R-catcher [3],arginylation detected by mass spectrometry [4],"capture by R-catcher, ATE1 dependence [5]"
R-BiP: Nt-arginylated BiP,bound R-catcher in an Nt-Arg-dependent manner,efficiently pull down,,,
CLU: clusterin,Nt-Arg-dependent binding with R-catcher,,significantly impaired their interaction with R-catcher; also recorded: abolished their binding with R-catcher,arginylation at the D23 residue,captured by R-catcher in an ATE1-dependent manner
